What was measured:
Assay type in all cases: in vivo, Mice
[1] = Feeding free EPA or LPC-EPA for 15 days: omega 3 fatty acids and arachidonic acid in tissues; conditions: 1 mg EPA/day for 15 days
BDNF = BDNF levels in the brain after feeding free EPA or LPC-EPA; conditions: 1 mg EPA/day for 15 days
Description: The compounds were dispersed in corn oil (80 μl) and fed daily by gavge. Results are shown in e.g. […]. […] See e.g. FIGS. 23A-23C.

[2] = Feeding free EPA or LPC-EPA for 15 days: omega 3 fatty acids and arachidonic acid in tissues; conditions: oral
Description: Mice were fed oral preparations of free EPA or LPC-EPA at about 1 mg/kg per day for 15 days. The compounds were dispersed in corn oil (80 μl) and fed daily by gavge.

eicosapenteanoic acid-lysophosphatidylcholine [LPC-EPA]
arachidonic acid in the brain, LPC-EPA versus free EPA [1]: decreased it more
concentration of arachidonic acid in all tissues [1]: decreased
enriching the total omega 3 fatty acids in the heart [1]: equally efficient
BDNF levels in the brain (BDNF): increased
all three n-3 fatty acids in the liver ([2]; 15 days): increased
decrease in liver arachidonic acid level ([2]; 15 days): ~60%
decrease of brain content of arachidonic acid ([2]; 15 days): ~40%
increase of total amount of brain Omega 3 fatty acids (EPA+DPA+DHA) ([2]; about 1 mg/kg per day for 15 days): about 90%
increase of brain DHA content ([2]; about 1 mg/kg per day for 15 days, corn oil gavage): 60%

From patent publication US10555957B2, “Methods and compositions for enriching DHA levels in the brain” (The Board of Trustees of the University of Illinois, a body …, priority 2017, dated 2020)
